Source: ChEMBL document CHEMBL1150026, “Synthesis of 2,3-dideoxy-2,3-didehydronucleoside analogues as potential anti HIV agents” (Bioorg Med Chem Lett, 1992)
Calls of active or inactive are those of the source. The rule behind the calls is not given here.

System: C8166
Experiment: Compound was tested for antiviral activity against HIV C 8166 cells at a concentration of 5-50 uM; NS - No significant activity
Assay type: functional, cell-based
Settings: Homo sapiens

| SMILES | Activity |
| --- | --- |
| COC(=O)C(C(=O)OC)=C1NC(=O)N(C2C=CC(CO)O2)C=C1C (stereo not drawn) | inactive |
| COc1nc(=O)n(C2C=CC(CO)O2)cc1C (stereo not drawn) | inactive |
| CCSc1nc(=O)n(C2C=CC(CO)O2)cc1C (stereo not drawn) | inactive |
